Literature values, collected in patent US20100048598A1, “TOPICAL COMPOSITIONS COMPRISING 5-ALPHA REDUCTASE INHIBITORS” (priority 2008, published 2010).

Assays:
androgenic alopecia = settings: 1 mg/day, treated men
DHT = settings: daily oral 1 mg dose
[1] = orally administered
type I 5α-reductase = target: T1, type I 5α-reductase (Homo sapiens, UniProt P18405); settings: relative to finasteride
T1 sequence (P18405 1-259): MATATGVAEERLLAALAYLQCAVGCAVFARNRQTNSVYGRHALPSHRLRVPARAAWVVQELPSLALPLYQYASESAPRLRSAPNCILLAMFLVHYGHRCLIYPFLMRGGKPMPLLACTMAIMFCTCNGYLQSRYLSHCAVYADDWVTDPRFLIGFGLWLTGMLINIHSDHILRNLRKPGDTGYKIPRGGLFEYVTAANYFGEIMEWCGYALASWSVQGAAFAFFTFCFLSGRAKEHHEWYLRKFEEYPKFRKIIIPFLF

type II 5α-reductase = target: T2, type II 5α-reductase (Homo sapiens, UniProt P31213); settings: relative to finasteride
T2 sequence (P31213 1-254): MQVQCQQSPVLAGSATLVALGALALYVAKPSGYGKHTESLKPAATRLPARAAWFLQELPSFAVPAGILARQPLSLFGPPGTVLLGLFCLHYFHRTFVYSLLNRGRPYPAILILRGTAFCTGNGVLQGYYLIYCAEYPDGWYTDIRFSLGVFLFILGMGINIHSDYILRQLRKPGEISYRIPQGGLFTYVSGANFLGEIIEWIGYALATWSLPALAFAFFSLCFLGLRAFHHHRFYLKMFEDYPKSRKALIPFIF

| Compound | progression of hair loss and hair growth compared with control group (androgenic alopecia) | scalp DHT reduction (DHT) | serum DHT reduction (DHT) | Absolute bioavailability [1] | Absolute bioavailability, range ([1]; range in brackets) | solubility in ethanol (ethanol) | solubility in methanol (methanol) | solubility in polyethylene glycol 400 (polyethylene glycol 400) | solubility in water (water) | potency at inhibiting the type I isoform as compared with finasteride (type I 5α-reductase) | potency at inhibiting type II 5α-reductase as compared with finasteride (type II 5α-reductase) |
| --- | --- | --- | --- | --- | --- | --- | --- | --- | --- | --- | --- |
| CC(C)(C)NC(=O)[C@H]1CC[C@H]2[C@@H]3CC[C@H]4NC(=O)C=C[C@]4(C)[C@H]3CC[C@]12C [Finasteride] | slowed the progression of hair loss and increased hair growth | 64% | 68% | – | – | – | – | – | – | – | – |
| C[C@]12C=CC(=O)N[C@@H]1CC[C@@H]1[C@@H]2CC[C@]2(C)[C@@H](C(=O)Nc3cc(C(F)(F)F)ccc3C(F)(F)F)CC[C@@H]12 [Dutasteride, (5α,17β)-N-{2,5-bis(trifluoromethyl)phenyl}-3-oxo-4-azaandrost-1-ene-17-carboxamide] | – | – | – | about 60% | 40%-94% | soluble | soluble | soluble | insoluble | more than 100 times | approximately 3 times |
